Tests used:
MDA-MB-231 = assay: Antiproliferative CCK-8 assay, MDA-MB-231; type: cell-based; conditions: Homo sapiens; MDA-MB-231, CCK-8 assay, means ± SD; read-out: GC50 (the source's name)
Excerpt: (§1) Compounds12, 13 and 30 were selected for further cell activity assessments based on the enzymatic activity assessment results. molm-13 and MV4-11(acute myeloid lineage leukaemia cells), MGC-803 (gastric cancer cell), MDA-MB-231(breast cancer cell), A375 (melanoma cell), A549 (lung cancer cell), HCT-116, SW-480 and HT-29 (colorectal cancer cells) were selected to evaluate antitumor activity in vitro, GES-1 (gastric mucosal epithelial cell) was selected to evaluate toxicity in vitro.
(§2) CO2 atmosphere incubator for 24 h. Then, medium with compound at the concentrations of 100, 20, 4, 0.8, 0.016 μM was added into each well for another 48 h and incubated with CCK-8 (10 μL) for 2 h at 37 °C. The absorbance value at 450 nm was measured by the microplate reader (PerkinElmer Envision). […]

CDK8 = CDK8 (Homo sapiens, UniProt P49336); assay: Cellular thermal shift assay; type: cell-based; design: endogenous in cells; host or cells: HCT-116; conditions: HCT-116 cells, 5 μM, 6 h; DMSO 49 °C; western blot
Sequence of CDK8 (P49336 whole entry): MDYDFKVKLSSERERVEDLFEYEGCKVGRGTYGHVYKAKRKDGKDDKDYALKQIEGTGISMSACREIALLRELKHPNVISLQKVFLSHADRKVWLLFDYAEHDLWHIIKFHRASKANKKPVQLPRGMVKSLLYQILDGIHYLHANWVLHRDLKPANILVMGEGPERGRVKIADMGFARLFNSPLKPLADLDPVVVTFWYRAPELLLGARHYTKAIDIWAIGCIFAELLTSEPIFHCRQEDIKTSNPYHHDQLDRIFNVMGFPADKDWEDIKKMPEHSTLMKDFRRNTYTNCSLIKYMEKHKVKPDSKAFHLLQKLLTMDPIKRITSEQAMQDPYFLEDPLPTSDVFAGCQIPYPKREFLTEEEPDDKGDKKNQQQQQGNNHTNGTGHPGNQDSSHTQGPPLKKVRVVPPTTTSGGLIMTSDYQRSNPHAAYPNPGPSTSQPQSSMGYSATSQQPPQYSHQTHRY
Description: Here, in order to identify compound 12 could bind CDK8, HCT-116 cells, a CDK8 high expression cell line, were treated with 5 μM compound 12 and DMSO for 6 h, respectively. Cell suspension was divided into 11 PCR tubes equally, then the samples were heated from 37 to 67 °C at intervals of 3 °C and the results were analysed through western blot. […] However, CDK8 was degraded almost completely at 55 °C after treated with compound 12, which indicated compound 12 enhanced the thermal stability of CDK8 and compound 12 could bind CDK8.
CO2 atmosphere incubator for 24 h. Then, medium with compound at the concentrations of 100, 20, 4, 0.8, 0.016 μM was added into each well for another 48 h and incubated with CCK-8 (10 μL) for 2 h at 37 °C. The absorbance value at 450 nm was measured by the microplate reader (PerkinElmer Envision).
The kinase inhibition was detected by ADP-Glo™ Kinase Assay (Promega) using a black 384-well plate. […] The data was collected by the microplate reader. […]
were broken by ultr asonic treatment and centrifuged at 12000 rpm for 20 min. The supernatant was analyzed by western blot. […]
After co-treated with 2 μM biotinylated compound and compound 12 for 12 h, HCT-116 cells were lysed with NP-40 containing PMSF and centrifuged at 14000 r for 30 min at 4 °C. […] The samples were analyzed by western blot.

CDK2 = CDK2 (Homo sapiens, UniProt P24941); assay: CDKs selectivity, CDK2; type: biochemical
Excerpt: (§3) CDK7 and CDK9 with the same transcription function and CDK2 and CDK6 were selected to evaluate the selectivity of compound 12.

SW480 = assay: Antiproliferative CCK-8 assay, SW480; type: cell-based; conditions: Homo sapiens; SW480, CCK-8 assay, means ± SD; read-out: GC50 (the source's name)
Excerpt: as §1, §2

CYP 2C19 = CYP 2C19 (Homo sapiens, UniProt P33261); assay: CYP inhibition activity, 2C19; type: in vitro ADME
Sequence of CYP 2C19 (P33261 whole entry): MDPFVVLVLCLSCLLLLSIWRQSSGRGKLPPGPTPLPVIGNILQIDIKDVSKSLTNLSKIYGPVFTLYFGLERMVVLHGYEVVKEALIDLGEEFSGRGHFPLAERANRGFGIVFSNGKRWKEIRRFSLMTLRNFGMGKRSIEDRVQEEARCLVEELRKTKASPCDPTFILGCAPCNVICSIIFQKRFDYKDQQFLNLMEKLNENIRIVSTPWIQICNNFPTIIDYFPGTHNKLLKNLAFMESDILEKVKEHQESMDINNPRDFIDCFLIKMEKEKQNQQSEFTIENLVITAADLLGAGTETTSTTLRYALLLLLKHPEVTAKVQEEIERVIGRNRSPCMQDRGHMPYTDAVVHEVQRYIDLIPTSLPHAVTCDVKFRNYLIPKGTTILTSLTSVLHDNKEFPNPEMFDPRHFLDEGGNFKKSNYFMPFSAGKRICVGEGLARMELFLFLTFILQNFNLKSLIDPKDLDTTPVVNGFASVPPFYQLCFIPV
Excerpt: Table 7. CYP inhibition activity. | column: IC50 (μM) / 2C19

STAT1 Tyr701 = assay: Phosphorylation of STAT1 Tyr701, western blot; type: cell-based; conditions: HCT-116 cells, 1, 2, 4 μM, 12 h
Description: It has been reported that CDK8 could specifically target the transactivation domain of STAT1 at Ser727 phosphorylation. HCT-116 cells were treated with compounds 12 with different concentrations of 1 μM, 2 μM, 4 μM separately to verify compound 12 could inhibit the phosphorylation of STAT1 Ser727. […] It’s reported that CDK8 was also involved in S726 phosphorylation of STAT5 in AML cells.
1.7 The effect of compound on phosphorylation of STAT1 S727
HCT-116 cells were seeded into 60 mm cultural dishes at a density of 1.5×10^6 cells per dishes. After incubated for 12 h, cells were treated with DMSO or 10ng/mL IFN-γ.1 hour later, cells were treated with or without different concentrations of compound for 12 h. Cells were lysed using RIPA containing PMSF and phosphatase inhibitor cocktail A. Then cell samples were treated by western blot. Levels of total STAT1, phosphorylated STAT1 S727, Y701 and GAPDH were analyzed.
1.8 The effect of compound on phosphorylation of STAT5 S726
HL-60 cells were seeded into 60 mm cultural dishes at a density of 2×10^6 cells per dishes. […]
Levels of total STAT5, phosphorylated STAT5 S726 and GAPDH were analyzed.
The results were expressed as the means ± SEMs (SPSS software), and the differences between groups were evaluated using Turkey’s method (GraphPad Software). […]

HCT-116 = assay: Antiproliferative CCK-8 assay, HCT-116; type: cell-based; conditions: Homo sapiens; HCT-116, CCK-8 assay, means ± SD; read-out: GC50 (the source's name)
Excerpt: as §1, §2

C57BL/6 mice = assay: Acute toxicity study; type: in vivo; conditions: 1000 mg/kg by gastric tube
Description: The safety of compound 12 in vivo was evaluated through an acute toxicity study on C57BL/6 mice. The compound 12 was administered by gastric tube at a dose of 1000 mg/kg. The normal group was given the same amount of normal saline. […] Finally, the mice were anaesthetised and sacrificed, and the main organs such as heart, liver, spleen, lung and kidney were detected through pathological section.

MGC-803 = assay: Antiproliferative CCK-8 assay, MGC-803; type: cell-based; conditions: Homo sapiens; MGC-803, CCK-8 assay, means ± SD; read-out: GC50 (the source's name)
Excerpt: as §1, §2

CDK7 = CDK7 (Homo sapiens, UniProt P50613); assay: CDKs selectivity, CDK7; type: biochemical
Sequence of CDK7 (P50613 whole entry): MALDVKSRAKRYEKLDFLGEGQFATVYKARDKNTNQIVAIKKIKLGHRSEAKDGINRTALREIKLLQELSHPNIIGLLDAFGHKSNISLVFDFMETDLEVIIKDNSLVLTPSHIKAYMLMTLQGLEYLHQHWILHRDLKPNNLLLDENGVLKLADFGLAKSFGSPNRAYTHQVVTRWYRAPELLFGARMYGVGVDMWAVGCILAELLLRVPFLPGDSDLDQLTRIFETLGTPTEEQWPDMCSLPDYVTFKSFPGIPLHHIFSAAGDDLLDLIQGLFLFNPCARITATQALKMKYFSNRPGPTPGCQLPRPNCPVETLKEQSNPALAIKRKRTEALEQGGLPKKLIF
Sequence of CDK7 (P51946 whole entry partner): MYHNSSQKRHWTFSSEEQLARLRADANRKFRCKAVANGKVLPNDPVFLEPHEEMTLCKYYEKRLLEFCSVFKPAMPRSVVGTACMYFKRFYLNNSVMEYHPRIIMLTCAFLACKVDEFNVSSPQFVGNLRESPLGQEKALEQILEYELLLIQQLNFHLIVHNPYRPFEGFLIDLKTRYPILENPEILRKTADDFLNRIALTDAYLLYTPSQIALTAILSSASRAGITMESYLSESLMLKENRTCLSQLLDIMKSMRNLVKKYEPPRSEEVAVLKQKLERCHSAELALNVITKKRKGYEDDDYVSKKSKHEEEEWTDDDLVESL
Sequence of CDK7 (P51948 whole entry partner): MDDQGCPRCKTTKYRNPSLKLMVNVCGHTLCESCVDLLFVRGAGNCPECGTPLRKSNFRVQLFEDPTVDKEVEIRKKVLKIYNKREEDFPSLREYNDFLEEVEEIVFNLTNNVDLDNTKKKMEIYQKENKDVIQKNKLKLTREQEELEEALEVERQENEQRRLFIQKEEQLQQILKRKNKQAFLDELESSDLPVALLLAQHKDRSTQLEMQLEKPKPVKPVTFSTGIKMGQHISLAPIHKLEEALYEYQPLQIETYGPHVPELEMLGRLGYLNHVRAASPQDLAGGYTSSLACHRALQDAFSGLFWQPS
Excerpt: as §3

Q: With NC(=O)c1cccc(-c2cnc3[nH]cc(-c4ccoc4)c3c2)c1 [Compound 12, 3-(3-(furan-3-yl)-1H-pyrrolo[2,3-b]pyridin-5-yl)benzamide] as the compound, how does the IC50 (MDA-MB-231) read?
A: Its IC50 is > 50 µM.

Q: And the “Temperature at which CDK8 was degraded almost completely” value (CDK8)?
A: The value was 55 °C.

Q: And the IC50 (CDK2)?
A: The IC50 was > 1 µM.

Q: And the IC50 (SW480)?
A: Its IC50 is 6.05 ± 2.26 µM.

Q: What about the IC50 (CYP 2C19) of the same compound?
A: Its IC50 is > 50 µM.

Q: And the “Phosphorylation of STAT1 Tyr701” value (STAT1 Tyr701)?
A: The value was “not inhibited”.

Q: And the IC50 (HCT-116)?
A: The IC50 was 3.66 ± 1.94 µM.

Q: And the “Physiological phenomena such as anorexia, drowsiness, seizures and hyperactivity” value (C57BL/6 mice; 7 days)?
A: Its value is “no obvious change”.

Q: And the “Pathological section of heart, liver, spleen, lung and kidney (HE staining)” value (C57BL/6 mice; after 7 days)?
A: Its value is “no diseased tissue”.

Q: And the IC50 (MGC-803)?
A: Its IC50 is 11.7 ± 1.93 µM.

Q: And the IC50 (CDK7)?
A: The IC50 was 0.301 ± 0.0278 µM.
